From patent US20200037609A1, “HERBICIDAL COMPOSITIONS AND METHODS OF USE THEREOF” (The Regents of the University of California, priority 2017, published 2020)

Molecular target: T1, AstD (Aspergillus terreus, UniProt Q0CPG9)
T1 construct: […]; 6xHis; made in house; host or cells: E. coli BL21 (DE3)
Assay: DHAD enzymatic inhibition assay (phenylhydrazine derivatization, LC-MS)
Assay type: biochemical
Details: 8 mM aspterric acid
Procedure: Enzymatic activity reactions were carried out in […] volumes containing 50 mM storage buffer, 10 mM (±)-Sodium 2,3-dihydroxyisovalerate hydrate (DHAD substrate) and 1 μM purified DHAD enzyme. After incubation for 30 minutes at 30° C., the reaction was stopped by adding an equal volume of ethanol. 1/10 volumes of 100 mM phenylhydrozine was added at room temperature for 30 minutes to derivatize the DHAD-synthesized molecule (3-methyl-2-oxo-butanoic acid) into a detectable derivatization product (DDP). See FIG. 5A for an overview of reactions.
Inhibition assays were carried out according to the reactions described above by incubating purified DHAD enzymes (either the housekeeping DHAD from Aspergillus terreus, the housekeeping DHAD from Arabidopsis thaliana, or AstD from Aspergillus terreus) with aspterric acid at various concentrations. For AstD, up to 8 mM of aspterric acid was tested. Derivatization with phenylhydrozine, LC-MS analysis, and DDP detection by UV absorption at 350 nm was carried out. The half maximal inhibitory concentration (IC50) and the effect of aspterric acid on the enzyme kinetics of each purified DHAD enzyme was calculated based on the initial reaction rates observed in the inhibition assays.
Biochemical assay of DHADs. […] The area of the HPLC peak with UV absorption at 350 nm was used to quantify the amount of 6. […]

T1 sequence (Q0CPG9 112-598): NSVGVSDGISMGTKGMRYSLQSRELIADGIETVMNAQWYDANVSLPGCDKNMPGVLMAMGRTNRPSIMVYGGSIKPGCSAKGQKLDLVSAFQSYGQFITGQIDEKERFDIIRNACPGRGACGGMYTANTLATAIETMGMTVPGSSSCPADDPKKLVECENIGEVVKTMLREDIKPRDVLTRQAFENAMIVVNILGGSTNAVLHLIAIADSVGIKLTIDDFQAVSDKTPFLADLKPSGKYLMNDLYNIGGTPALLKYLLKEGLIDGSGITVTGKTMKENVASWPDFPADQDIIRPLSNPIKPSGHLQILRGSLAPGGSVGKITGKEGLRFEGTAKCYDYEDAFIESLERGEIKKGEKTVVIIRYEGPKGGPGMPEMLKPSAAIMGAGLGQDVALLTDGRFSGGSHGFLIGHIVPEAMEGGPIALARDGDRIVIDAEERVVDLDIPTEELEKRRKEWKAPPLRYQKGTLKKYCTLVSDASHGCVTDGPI

In the case of CC(C)=C1CC[C@]23CO[C@H](C2)[C@@](O)(C(=O)O)CC[C@@H]13 [aspterric acid], the “inhibition of AstD” value is reported as “no inhibition” and the “inhibition of AstD” value (listed as AA) is reported as “not inhibited”.
